Results published in paper PMC3133487 (Journal of Antimicrobial Chemotherapy, 2011).
Converted amounts (≈) assume the structure as drawn. “And” between values parts separate entries of the source, which are not always exact repeats. Equal entries are not always repeated.

Key:
[1] = biological target: T1, M. tuberculosis MurE (Mycobacterium tuberculosis, UniProt P9WJL3); test: MurE ligase inhibition, phosphate colorimetric detection method; format: biochemical
T1 sequence (P9WJL3 1-535): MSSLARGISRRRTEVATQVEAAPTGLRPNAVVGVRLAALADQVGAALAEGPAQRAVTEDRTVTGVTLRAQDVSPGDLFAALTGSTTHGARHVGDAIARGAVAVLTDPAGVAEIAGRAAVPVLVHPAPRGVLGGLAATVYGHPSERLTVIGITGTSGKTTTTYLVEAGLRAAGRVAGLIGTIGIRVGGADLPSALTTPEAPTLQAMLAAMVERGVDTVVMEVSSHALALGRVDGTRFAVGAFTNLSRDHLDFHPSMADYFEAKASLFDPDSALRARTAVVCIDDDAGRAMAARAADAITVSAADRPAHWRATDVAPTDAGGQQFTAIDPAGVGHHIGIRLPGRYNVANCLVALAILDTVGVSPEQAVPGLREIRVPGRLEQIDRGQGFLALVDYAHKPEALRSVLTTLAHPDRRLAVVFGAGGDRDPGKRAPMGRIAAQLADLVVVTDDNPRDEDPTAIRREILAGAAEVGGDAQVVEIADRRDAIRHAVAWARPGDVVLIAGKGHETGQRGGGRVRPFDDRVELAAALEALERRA

[2] = biological target: T1, M. tuberculosis MurE; test: MurE ligase inhibition, HPLC quantification of UDP-MurNAc-tripeptide; format: biochemical
[3] = system: M. fortuitum; test: Microdilution MIC assay in cation-adjusted Mueller–Hinton broth; format: cell-based, Mycobacterium fortuitum; conditions: Mycolicibacterium fortuitum, read-out: MIC M. fortuitum
[4] = system: M. smegmatis mc^2155; test: microbe, parasite or virus in culture; format: cell-based, Mycobacterium smegmatis; conditions: Mycolicibacterium smegmatis, MC^2155, 72 h, read-out: MIC M. smegmatis mc^2155
[5] = system: M. phlei; test: Microdilution MIC assay in cation-adjusted Mueller–Hinton broth; format: cell-based, Mycobacterium phlei; conditions: Mycolicibacterium phlei, read-out: MIC M. phlei
[6] = system: RAW264.7 macrophages; conditions: RAW264.7, 48 h, ±SD
[7] = system: EMRSA-16; test: Microdilution MIC assay in Mueller–Hinton broth; format: cell-based; conditions: Staphylococcus aureus, read-out: MIC S. aureus EMRSA-16
[8] = system: EMRSA-15; test: Microdilution MIC assay in Mueller–Hinton broth; format: cell-based; conditions: Staphylococcus aureus, read-out: MIC S. aureus EMRSA-15

SMILES	IC50 [1]	IC50 [2]	MIC [3]	MIC [4]	MIC [5]	Murine macrophages GIC50 (50% growth inhibition concentration) [6]	MIC [7]	MIC [8]
NNC(=O)c1ccncc1 [Isoniazid]	> 1000 µM	> 1000 µM	1 µg/mL and 3.65 µM	5 µg/mL and 18.5 µM	4 µg/mL and 15 µM	>500 mg/L	–	–
CCn1cc(C(=O)O)c(=O)c2cc(F)c(N3CCNCC3)cc21 [norfloxacin]	–	–	–	–	–	–	256 µg/mL (≈ 802 µM)	0.5 µg/mL (≈ 1.57 µM)
